Patent publication US11168081B2, “Alkaloid derivative having angiogenesis inhibitory effect, and pharmaceutical composition containing same” (SEOUL NATIONAL UNIVERSITY R&DB FOUNDATION, priority 2017, dated 2021)

Key:
[1] = tested on: human umbilical vascular endothelial cell (HUVEC); conditions: Korean Patent Application Publication No. 10-2012-0122705; cited from earlier work
[2] = tested on: HUVECs; test: In vitro tube formation assay; assay type: cell-based, human; conditions: for IC50: Homo sapiens, HUVEC, HUVECs on Matrigel, 8 hours, VEGF-induced tube formation; for Selectivity Index (SI): ratio of the IC50 for HUVEC cell growth to the IC50 for tube formation
Description: Matrigel (70 μl/well) was coated onto a 96-well plate and polymerized for 30 minutes at 37° C. under a 5% CO2 atmosphere. HUVECs (1.5×10^4 cells/well) and various concentrations of the compound were seeded onto each well of the Matrigel-coated 96-well plate. The cells were then incubated for 8 hours at 37° C. under a 5% CO2 atmosphere. The formation of endothelial cell tubular structures was visualized under an inverted microscope and photographed (Olympus Optical Co. Ltd., Tokyo, Japan). The inhibition rate of tube formation was determined using the following equation. tube formation inhibition rate (%)=[1−(average tube numbersample−average tube numberVEGF(−))/(average tube numberVEGF(+)−average tube numberVEGF(−))]×100 [Equation 1]
The IC50 value was calculated using nonlinear regression analysis using TableCurve 2D v5.01 software (Systat Software Inc., Richmond, Calif., USA).
(§1) The same experiment was carried out for sunitinib as a positive control.
The endothelial cell tubular structure formation assay was performed in the same manner as in the Experimental Example 1.

[3] = tested on: HUVECs; test: HUVEC cell growth assay (MTT); assay type: cell-based, human; conditions: for IC50: Homo sapiens, HUVEC, MTT, 24 hours, in the presence of VEGF (50 ng/mL)
Description: Human umbilical vascular endothelial cells (HUVECs) were obtained from the ATCC (Rockville, Md.) and cultured in EGM-2 (Lonza, Walkersville, Md.) supplemented with 10% FBS at 37° C. under a 5% CO2 atmosphere.
Cell growth was assessed by MTT assay. HUVECs (8×10^3 cells/well) were seeded onto a 96-well plate with EGM-2 medium supplemented with 10% FBS for 24 hours. The next day, the culture medium was removed, and the cells were then incubated with serum-free medium for 12 hours. Following serum starvation, the cells were cultured in fresh 2% FBS/EBM-2 medium containing various concentrations of the test compound for 24 hours in the presence of VEGF (50 ng/mL). After the incubation, an MTT solution was added, and the plate was incubated for additional 4 hours. The formazan product was dissolved in DMSO, and the absorbance was detected at 570 nm using a VersaMax ELISA microplate reader (Molecular Devices, Sunnyvale, Calif.).
as §1

SMILES | inhibition of human umbilical vascular endothelial cell (HUVEC) [1] | IC50 [2] [µM] | Selectivity Index (SI) [2] | IC50 [3] [µM] | higher inhibitory effect on the cell growth of HUVECs ([3]; sunitinib relative to compound (I-7)) [fold]
CN(C)CCc1cn(C(c2ccc(O)c(O)c2)C2Oc3ccc(C=COS(=O)(=O)[O-])cc3O2)cn1.[Na+] (centres unmarked) [wondonin, Wondonin] | does not inhibit | – | – | – | –
CCc1ccc2nc(C(c3ccc(OC)c(OC)c3)n3cc(CCN(C)C)nn3)sc2c1 (centres unmarked) [Compound I-2, 2-(1-((3,4-dimethoxyphenyl)(6-ethylbenzo[d]thiazol-2-yl)methyl)-1H-1,2,3-triazol-4-yl)-N,N-dimethylethan-1-amine] | – | 8.27 | 11.3 | 93.5 | –
CCc1ccc2nc(C(c3ccc(OC)c(OC)c3)n3cnc(CCN(C)C)c3)sc2c1 (centres unmarked) [Compound I-10, 2-(1-((3,4-dimethoxyphenyl)(6-ethylbenzo[d]thiazol-2-yl)methyl)-1H-imidazol-4-yl)-N,N-dimethylethan-1-amine] | – | 4.87 | – | > 100 | –
CCc1ccc2nc(C(c3ccc(OC)c(OC)c3)n3cc(CCN4CCCC4)nn3)sc2c1 (centres unmarked) [Compound I-5, 2-((3,4-dimethoxyphenyl)(4-(2-(pyrrolidin-1-yl)ethyl)-1H-1,2,3-triazol-1-yl)methyl)-6-ethylbenzo[d]thiazole] | – | 2.84 | 24.8 | 70.3 | –
CCc1ccc2nc(C(c3ccc(OC)c(OC)c3)n3cnc(CCN4CCCCC4)c3)sc2c1 (centres unmarked) [Compound I-12, 2-((3,4-dimethoxyphenyl)(4-(2-(piperidin-1-yl)ethyl)-1H-imidazol-1-yl)methyl)-6-ethylbenzo[d]thiazole] | – | 3.4 | 22.23 | 75.6 | –
CCc1ccc2nc(C(c3ccc(OC)c(OC)c3)n3cc(CCN4CCOCC4)nn3)sc2c1 (centres unmarked) [Compound I-6, 4-(2-(1-((3,4-dimethoxyphenyl)(6-ethylbenzo[d]thiazol-2-yl)methyl)-1H-1,2,3-triazol-4-yl)ethyl)morpholine] | – | 3.93 | – | > 100 | –
CCc1ccc2nc(C(c3ccc(OC)c(OC)c3)n3cnc(CCNC4CCCC4)c3)sc2c1 (centres unmarked) [Compound I-13, N-(2-(1-((3,4-dimethoxyphenyl)(6-ethylbenzo[d]thiazol-2-yl)methyl)-1H-imidazol-4-yl)ethyl)cyclopentanamine] | – | 1.56 | 19.63 | 30.6 | –
CCc1ccc2nc(C(c3ccc(OC)c(OC)c3)n3cc(CCNC4CCCC4)nn3)sc2c1 (centres unmarked) [Compound I-4, N-(2-(1-((3,4-dimethoxyphenyl)(6-ethylbenzo[d]thiazol-2-yl)methyl)-1H-1,2,3-triazol-4-yl)ethyl)cyclopentanamine] | – | 1.02 | 19.0 | 19.4 | –
CCN(CC)CCNC(=O)c1c(C)[nH]c(/C=C2\C(=O)Nc3ccc(F)cc32)c1C [Sunitinib, sunitinib, reference compound] | – | 0.546 | 18.2 | 9.92 | 4.8
CCc1ccc2nc(C(c3ccc(O)c(O)c3)n3cc(CCN(C)C)nn3)sc2c1 (centres unmarked) [Compound I-1, 4-((4-(2-(dimethylamino)ethyl)-1H-1,2,3-triazol-1-yl)(6-ethylbenzo[d]thiazol-2-yl)methyl)benzene-1,2-diol] | – | 3.04 | 12.3 | 37.3 | –
CCCN(CCC)CCc1cn(C(c2ccc(OC)c(OC)c2)c2nc3ccc(CC)cc3s2)cn1 (centres unmarked) [Compound I-11, N-(2-(1-((3,4-dimethoxyphenyl)(6-ethylbenzo[d]thiazol-2-yl)methyl)-1H-imidazol-4-yl)ethyl)-N-propylpropan-1-amine] | – | 1.82 | 21.18 | 38.6 | –
CCc1ccc2nc(C(c3ccc(OC)c(OC)c3)n3cnc(CCN4CCCC4)c3)sc2c1 (centres unmarked) [Compound I-14, 2-((3,4-dimethoxyphenyl)(4-(2-(pyrrolidin-1-yl)ethyl)-1H-imidazol-1-yl)methyl)-6-ethylbenzo[d]thiazole] | – | 1.53 | 62.56 | 95.7 | –
CCc1ccc2nc(C(c3ccc(OC)c(OC)c3)n3cc(CCCN4CCCCC4)nn3)sc2c1 (centres unmarked) [Compound I-16, 2-((3,4-dimethoxyphenyl)(4-(3-(piperidin-1-yl)propyl)-1H-1,2,3-triazol-1-yl)methyl)-6-ethylbenzo[d]thiazole] | – | 2.28 | 13.38 | 30.5 | –
CCc1ccc2nc(C(c3ccc(O)c(O)c3)n3cc(CCN(C)C)nn3)oc2c1 (centres unmarked) [Compound I-9, 4-((4-(2-(dimethylamino)ethyl)-1H-1,2,3-triazol-1-yl)(6-ethylbenzo[d]oxazol-2-yl)methyl)benzene-1,2-diol] | – | > 20 | – | > 100 | –
CCCNCCc1cn(C(c2ccc(OC)c(OC)c2)c2nc3ccc(CC)cc3s2)nn1 (centres unmarked) [Compound I-3, N-(2-(1-((3,4-dimethoxyphenyl)(6-ethylbenzo[d]thiazol-2-yl)methyl)-1H-1,2,3-triazol-4-yl)ethyl)propan-1-amine] | – | 1.39 | 27.8 | 38.6 | –
CCc1ccc2cc(C(c3ccc(O)c(O)c3)n3cc(CCN(C)C)nn3)oc2c1 (centres unmarked) [Compound I-8, 4-((4-(2-(dimethylamino)ethyl)-1H-1,2,3-triazol-1-yl)(6-ethylbenzofuran-2-yl)methyl)benzene-1,2-diol] | – | 6.1 | 3.61 | 22 | –
CCc1ccc2nc(C(c3ccc(OC)c(OC)c3)n3cc(CN4CCCCC4)nn3)sc2c1 (centres unmarked) [Compound I-15, 2-((3,4-dimethoxyphenyl)(4-(piperidin-1-ylmethyl)-1H-1,2,3-triazol-1-yl)methyl)-6-ethylbenzo[d]thiazole] | – | 2.46 | >40.65 | > 100 | –
